From ChEMBL document CHEMBL4145665, “Structure-Activity Relationship of Novel and Selective Biaryl-Chroman GPR40 AgoPAMs” (ACS Med Chem Lett, 2018)

Legend:
[1] = Tmax in Wistar rat at 750 mg/kg administered once daily for 4 days; format: ADME, organism-based; conditions: in vivo
[2] = system: Rattus norvegicus; test: Antidiabetic activity in po dosed Goto Kakizaki rats assessed as reduction in blood glucose excursion pretreated for 1 hr followed by dextrose challenge measured after 20 to 60 mins by OGTT method; format: functional; conditions: read-out: MED
[3] = Clearance in rhesus monkey at 1 mg/kg, iv or 2 mg/kg, po administered as single dose; format: ADME, organism-based, Macaca mulatta; conditions: in vivo
[4] = system: Rattus norvegicus; test: Antidiabetic activity in Goto Kakizaki rats assessed as inhibition of blood glucose AUC at 30 mg/kg, po pretreated for 1 hr followed by dextrose challenge measured after 20 to 60 mins by OGTT method relative to control; format: functional
[5] = target: Bile salt export pump (Homo sapiens, UniProt O95342); test: Inhibition of human BSEP expressed in baculovirus infected Sf9 insect cell membrane vesicles assessed as reduction in ATP-dependent [3H]-taurocholic acid uptake; format: ADME
[6] = system: Rattus norvegicus; test: Antidiabetic activity in Goto Kakizaki rats assessed as inhibition of blood glucose AUC at 0.3 mg/kg, po pretreated for 1 hr followed by dextrose challenge measured after 20 to 60 mins by OGTT method relative to control; format: functional
[7] = Effective half life in rhesus monkey at 1 mg/kg, iv or 2 mg/kg, po administered as single dose; format: ADME, organism-based, Macaca mulatta; conditions: in vivo, read-out: t1/2eff (converted)
[8] = Effective half life in Beagle dog at 1 mg/kg, iv or 2 mg/kg, po administered as single dose; format: ADME, organism-based, Canis lupus familiaris; conditions: in vivo, read-out: t1/2eff (converted)
[9] = Fraction unbound in Beagle dog plasma at 1 mg/kg, iv or 2 mg/kg, po administered as single dose; format: ADME, organism-based, Canis lupus familiaris
[10] = Cmax in Wistar rat at 200 mg/kg administered once daily for 4 days; format: ADME, organism-based; parameters: dose 200 mg/kg; conditions: in vivo
[11] = system: Rattus norvegicus; test: Antidiabetic activity in Goto Kakizaki rats assessed as inhibition of blood glucose AUC at 1 mg/kg, po pretreated for 1 hr followed by dextrose challenge measured after 20 to 60 mins by OGTT method relative to control; format: functional
[12] = system: Rattus norvegicus; test: Antidiabetic activity in Goto Kakizaki rats assessed as plasma concentration required for reduction in blood glucose excursion at 0.3 mg/kg, po pretreated for 1 hr followed by dextrose challenge measured 3 hrs post dose by OGTT; format: functional, organism-based
[13] = system: Rattus norvegicus; test: Antidiabetic activity in po dosed Goto Kakizaki rats assessed as plasma concentration required for reduction in blood glucose excursion at MED pretreated for 1 hr followed by dextrose challenge measured 3 hrs post dose by OGTT; format: functional, organism-based
[14] = system: Rattus norvegicus; test: Antidiabetic activity in Goto Kakizaki rats assessed as plasma concentration required for reduction in blood glucose excursion at 1 mg/kg, po pretreated for 1 hr followed by dextrose challenge measured 3 hrs post dose by OGTT; format: functional, organism-based
[15] = Oral bioavailability in Wistar-Han rat at 2 mg/kg administered as single dose; format: ADME, organism-based; conditions: in vivo
[16] = system: Rattus norvegicus; test: Antidiabetic activity in Goto Kakizaki rats assessed as inhibition of blood glucose AUC at 10 mg/kg, po pretreated for 1 hr followed by dextrose challenge measured after 20 to 60 mins by OGTT method relative to control; format: functional
[17] = system: Rattus norvegicus; test: Toxicity in Wistar rat assessed as decrease in body weight at 200 mg/kg administered once daily for 4 days relative to control; format: organism-based; parameters: scale not given: the % may be the effect or the level left; conditions: in vivo, 96 h
[18] = system: Rattus norvegicus; test: Toxicity in Wistar rat assessed as decrease in body weight at 750 mg/kg administered once daily for 4 days relative to control; format: organism-based; parameters: scale not given: the % may be the effect or the level left; conditions: in vivo, 96 h
[19] = Tmax in Wistar rat at 200 mg/kg administered once daily for 4 days; format: ADME, organism-based; conditions: in vivo
[20] = system: Mus musculus; test: Antidiabetic activity in po dosed C57BL/6 mouse assessed as increase in GLP-1 secretion measured after 1 hr; format: functional, organism-based
[21] = system: Rattus norvegicus; test: Toxicity in Wistar rat assessed as change in cardiac troponin1 levels at 200 to 750 mg/kg administered once daily for 4 days; format: organism-based; conditions: in vivo, 96 h
[22] = system: Rattus norvegicus; test: Toxicity in Wistar rat assessed as gross findings at 200 to 750 mg/kg administered once daily for 4 days; format: organism-based; conditions: in vivo, 96 h
[23] = Lipophilicity, log D of the compound at pH 7 at 100 uM by HPLC method; format: physicochemical; conditions: buffer
[24] = Clearance in Wistar-Han rat at 1 mg/kg, iv or 2 mg/kg, po administered as single dose; format: ADME, organism-based; conditions: in vivo
[25] = Effective half life in Wistar-Han rat at 1 mg/kg, iv or 2 mg/kg, po administered as single dose; format: ADME, organism-based; conditions: in vivo, read-out: t1/2eff (converted)
[26] = target: Free fatty acid receptor 1 (Rattus norvegicus, UniProt Q8K3T4); test: Agonist activity at recombinant rat GPR40 expressed in CHOK1 cells assessed as increase in IP1 accumulation measured after 60 mins by HTRF assay; format: functional, cell-based
[27] = Volume of distribution at steady state in Wistar-Han rat at 1 mg/kg, iv or 2 mg/kg, po administered as single dose; format: ADME, organism-based; conditions: in vivo, read-out: Vdss
[28] = system: Rattus norvegicus; test: Toxicity in Wistar rat assessed as mortality at 200 to 750 mg/kg administered once daily for 4 days; format: organism-based; conditions: in vivo, 96 h
[29] = Fraction unbound in Wistar-Han rat plasma at 1 mg/kg, iv or 2 mg/kg, po administered as single dose; format: ADME, organism-based
[30] = Cmax in Wistar rat at 750 mg/kg administered once daily for 4 days; format: ADME, organism-based; parameters: dose 750 mg/kg; conditions: in vivo
[31] = Intrinsic clearance in rhesus monkey hepatocytes; format: ADME, cell-based, Macaca mulatta, Hepatocyte; conditions: read-out: CLH
[32] = Drug metabolism in human hepatocytes assessed as phenol metabolite formation; format: ADME, cell-based, Hepatocyte
[33] = Clearance in Beagle dog at 1 mg/kg, iv or 2 mg/kg, po administered as single dose; format: ADME, organism-based, Canis lupus familiaris; conditions: in vivo
[34] = AUC (0 to 24 hrs) in Wistar rat at 200 mg/kg administered once daily for 4 days; format: ADME, organism-based; parameters: dose 200 mg/kg, time < 24 hr; conditions: in vivo
[35] = Fraction unbound in rhesus monkey plasma at 1 mg/kg, iv or 2 mg/kg, po administered as single dose; format: ADME, organism-based, Macaca mulatta
[36] = Volume of distribution at steady state in Beagle dog at 1 mg/kg, iv or 2 mg/kg, po administered as single dose; format: ADME, organism-based, Canis lupus familiaris; conditions: in vivo, read-out: Vdss
[37] = system: Rattus norvegicus; test: Antidiabetic activity in Goto Kakizaki rats assessed as inhibition of blood glucose AUC at 3 mg/kg, po pretreated for 1 hr followed by dextrose challenge measured after 20 to 60 mins by OGTT method relative to control; format: functional
[38] = Oral bioavailability in rhesus monkey at 2 mg/kg administered as single dose; format: ADME, organism-based, Macaca mulatta; conditions: in vivo
[39] = system: Rattus norvegicus; test: Toxicity in Wistar rat assessed as change in functional observational battery at 200 to 750 mg/kg administered once daily for 4 days; format: organism-based; conditions: in vivo, 96 h
[40] = target: Free fatty acid receptor 1 (Rattus norvegicus) (UniProt Q8K3T4); test: Agonist activity at recombinant rat GPR40 expressed in CHOK1 cells assessed as increase in IP1 accumulation measured after 60 mins by HTRF assay relative to AM-1638; format: functional, cell-based
[41] = system: Rattus norvegicus; test: Antidiabetic activity in Goto Kakizaki rats assessed as plasma concentration required for reduction in blood glucose excursion at 30 mg/kg, po pretreated for 1 hr followed by dextrose challenge measured 3 hrs post dose by OGTT; format: functional, organism-based
[42] = target: Free fatty acid receptor 1 (Homo sapiens, UniProt O14842); test: Agonist activity at recombinant human GPR40 expressed in HEK293 cells assessed as increase in IP1 accumulation measured after 60 mins by HTRF assay; format: functional, cell-based
Chain of Free fatty acid receptor 1 (Homo sapiens, UniProt O14842) (O14842 whole entry): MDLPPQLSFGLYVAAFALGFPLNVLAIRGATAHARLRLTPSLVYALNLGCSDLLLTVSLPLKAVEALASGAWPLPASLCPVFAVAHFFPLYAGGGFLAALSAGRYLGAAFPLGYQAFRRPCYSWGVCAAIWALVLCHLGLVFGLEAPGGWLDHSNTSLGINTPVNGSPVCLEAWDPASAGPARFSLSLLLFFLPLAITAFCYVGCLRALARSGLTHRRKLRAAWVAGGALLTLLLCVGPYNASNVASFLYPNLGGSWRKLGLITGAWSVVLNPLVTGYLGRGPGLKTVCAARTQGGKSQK

Chain of Free fatty acid receptor 1 (Rattus norvegicus, UniProt Q8K3T4) (Q8K3T4 whole entry): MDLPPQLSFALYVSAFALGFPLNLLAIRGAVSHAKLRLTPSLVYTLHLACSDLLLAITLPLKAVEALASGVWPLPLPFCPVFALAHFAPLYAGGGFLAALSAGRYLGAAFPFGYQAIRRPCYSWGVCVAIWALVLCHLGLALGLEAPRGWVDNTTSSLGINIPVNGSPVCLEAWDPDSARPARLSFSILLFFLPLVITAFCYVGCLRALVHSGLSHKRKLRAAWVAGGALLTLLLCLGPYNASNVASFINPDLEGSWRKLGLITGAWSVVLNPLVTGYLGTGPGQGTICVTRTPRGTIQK
Chain of Free fatty acid receptor 1 (Rattus norvegicus) (Q8K3T4 whole entry): as above
Chain of Bile salt export pump (O95342 whole entry): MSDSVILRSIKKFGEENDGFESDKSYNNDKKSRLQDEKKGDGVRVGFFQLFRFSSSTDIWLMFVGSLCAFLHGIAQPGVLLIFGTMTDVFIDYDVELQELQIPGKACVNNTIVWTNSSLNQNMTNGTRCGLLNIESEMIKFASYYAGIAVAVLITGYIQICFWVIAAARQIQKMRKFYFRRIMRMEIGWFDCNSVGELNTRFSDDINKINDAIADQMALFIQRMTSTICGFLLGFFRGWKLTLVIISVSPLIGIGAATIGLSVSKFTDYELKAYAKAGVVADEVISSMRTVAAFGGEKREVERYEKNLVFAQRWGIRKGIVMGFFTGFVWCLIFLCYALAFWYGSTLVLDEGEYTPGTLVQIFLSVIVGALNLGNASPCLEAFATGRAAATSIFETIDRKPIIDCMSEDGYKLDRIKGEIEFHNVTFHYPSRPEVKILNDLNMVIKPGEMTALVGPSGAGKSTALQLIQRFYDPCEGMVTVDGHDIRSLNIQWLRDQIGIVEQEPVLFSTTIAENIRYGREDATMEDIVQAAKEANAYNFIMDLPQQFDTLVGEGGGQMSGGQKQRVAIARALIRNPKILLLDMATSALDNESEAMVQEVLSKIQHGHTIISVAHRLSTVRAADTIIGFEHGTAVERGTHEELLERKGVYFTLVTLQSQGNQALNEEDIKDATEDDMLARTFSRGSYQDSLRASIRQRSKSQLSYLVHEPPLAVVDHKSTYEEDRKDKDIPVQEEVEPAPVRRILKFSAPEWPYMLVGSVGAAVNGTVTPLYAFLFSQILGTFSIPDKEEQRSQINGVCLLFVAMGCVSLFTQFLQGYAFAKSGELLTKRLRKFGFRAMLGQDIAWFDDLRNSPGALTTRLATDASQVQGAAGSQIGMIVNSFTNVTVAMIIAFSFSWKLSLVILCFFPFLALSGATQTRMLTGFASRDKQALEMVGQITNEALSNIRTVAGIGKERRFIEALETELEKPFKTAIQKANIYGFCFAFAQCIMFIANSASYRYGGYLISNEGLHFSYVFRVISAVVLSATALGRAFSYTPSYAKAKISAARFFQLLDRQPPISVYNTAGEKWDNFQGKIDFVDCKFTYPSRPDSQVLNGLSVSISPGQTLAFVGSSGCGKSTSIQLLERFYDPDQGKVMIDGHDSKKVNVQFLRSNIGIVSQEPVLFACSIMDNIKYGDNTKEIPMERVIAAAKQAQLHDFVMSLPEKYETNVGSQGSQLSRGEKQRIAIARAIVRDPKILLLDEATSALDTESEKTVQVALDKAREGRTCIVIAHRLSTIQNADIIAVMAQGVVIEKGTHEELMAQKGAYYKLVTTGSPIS

COc1cc(-c2ccc([C@@H]3CCc4ccc([C@H](C5CC5)[C@H](C)C(=O)[O-])cc4O3)c(F)c2)ccn1.[Na+]
Tmax [1]: 1 to 2 h | minimal effective dose [2]: 10 mg/kg | clearance [3]: 0.72 mL/min/kg | inhibition in vivo at 30 mg/kg [4]: 114% | IC50 [5]: 3500 nM | inhibition in vivo at 0.3 mg/kg [6]: 63% | half-life [7]: 10 h | half-life [8]: 6.9 h | fraction unbound [9]: 0.015 | Cmax [10]: 223 µM | inhibition in vivo at 1 mg/kg [11]: 95% | Cp [12]: 0.25 µM | Cp [13]: 4.9 µM | Cp [14]: 0.9 µM | bioavailability [15]: 81% | inhibition in vivo at 10 mg/kg [16]: 118% | Activity [17]: 72% | Activity [18]: 90% | Tmax [19]: 1 to 2 h | Activity [20]: Dose-dependent effect | Activity [21]: Non-Toxic | Activity [22]: Non-Toxic | logD at 100 µM [23]: 2.51 | clearance [24]: 2.8 mL/min/kg | half-life [25]: 3.7 h | EC50 [26]: 0.49 nM | Vd [27]: 0.48 L/kg | Activity [28]: Non-Toxic | fraction unbound [29]: 0.0002 | Cmax [30]: 545 µM | CLint scaled [31]: 102 mL/min/kg | Drug metabolism [32]: Metabolite_Notdetected | clearance [33]: 1.6 mL/min/kg | AUC at 24 h [34]: 2310 µM·h | fraction unbound [35]: 0.00071 | Vd [36]: 0.45 L/kg | inhibition in vivo at 3 mg/kg [37]: 108% | bioavailability [38]: 64% | Activity [39]: Non-Toxic | max activation [40]: > 370% | Cp [41]: 7.7 µM | EC50 [42]: 0.8 nM
